Earlier results as cited in US10583082B2, “Composition comprising at least two dry powders obtained by spray drying to increase the stability of the formulation” (Eratech S.R.L., priority 2013, dated 2020).

conditions: from US 2001/0036481 A1

Compared with `CCCCCCCCCCCCCCCCCC(=O)OC[C@H](COP(=O)([O-])OCC[N+](C)(C)C)OC(=O)CCCCCCCCCCCCCCCCC` [DSPC, distearoylphosphatidylcholine], `CCCCCCCCCCCCCCCC(=O)OC[C@H](COP(=O)([O-])OCC[N+](C)(C)C)OC(=O)CCCCCCCCCCCCCCC` [DPPC, dipalmitoylphosphatidylcholine] is lower in “phospholipid transition temperature (Tg) with humidity” value: 55 °C for the first, 41 °C for the second.

In the case of `CCCCCCCCCCCCCCCC(=O)OCC(COP(=O)(O)OCCN)OC(=O)CCCCCCCCCCCCCCC` (stereo not drawn) [DPPE, dipalmitoylphosphatidylethanolamine], the “phospholipid transition temperature (Tg) with humidity” value is listed as 63 °C.
